{"source": "patent US20080011613A1", "about": "“Method of electrolytically depositing a pharmaceutical coating onto a conductive osteal implant” (priority 2004, published 2008)", "experiment": "Precipitation boundary of etidronate in the presence of Ca2+ by NaOH titration", "format": "physicochemical", "conditions": "Ca:etidronate molar ratio 2:1, titration with NaOH", "experimental": "Etidronic acid has a molecular weight of 206.03 (Fluka, Switzerland). The precipitation boundary of etidronate in the presence of Ca^2+ was determined by titration and used for choosing the solution conditions suitable for electrolytic deposition (ELD). A series of 50 mL solutions containing etidronate (15, 10, 9, 5, 4, 2.5, 1.9, 1.25, 1.22, 1.15, 1.10, and 0.625 mM) and Ca(NO3)2 of different concentrations, with Ca:etidronate molar ratio all fixed at 2:1, were prepared and titrated with NaOH solutions until the first visual sign of turbidity (end point/the precipitation boundary). The pH and NaOH volume consumption at end points were recorded and the Ca^2+ and etidronate concentrations at this point was calculated using equation (Eq. 3): [formula] where C is the titrate (etidronate or Ca^2+) concentration (mM) at the end point, C0 is the titrate concentration (mM) before titration, and VNaOH is NaOH volume (mL) consumption at the end point of titration.\nAfter the precipitation boundary was established, etidronate 5.0 mM, Ca^2+ 10 mM, and pH 4.50 were chosen as the solution conditions for ELD. […] This volume also provided reasonable space to accommodate the experiment setup, that is, two electrodes and the fixture.", "data": [{"smiles": "CC(O)(P(=O)(O)O)P(=O)(O)O", "note": "[etidronate, 1-hydroxy-ethylidene-1,1-diphosphonate]", "values": [{"measurement": "Etidronate concentration at which no precipitation could be visually judged", "value": "< 1.15", "unit": "mM"}]}]}
